Each structure is given as a SMILES string.

These results are taken from patent US7709526B2, “Use of cyclolignans and new cyclolignans” (Biovitrum AB, priority 2001, dated 2010).

For one assay, the system named is SK-MEL-28 melanoma cells. In words: Cell viability (XTT), SK-MEL-28. In kind it is cell-based, human. The settings on record: Homo sapiens, 48 h. As for the experimental part: (§1) Cell proliferation kit II (Roche Inc.) is based on calorimetric change of the yellow tetrazolium salt XTT in orange formazan dye by the respiratory chain of viable cells (Roehm, N W, et al., J Immunol Methods 142:257-265, 1991). Cells seeded at a concentration of 5000/well in 100 μl medium in a 96-well plate were treated with different drugs in the given concentration. After 24 or 48 h the cells were incubated, according to the manufacturer's protocol, with XTT labelling mixture. After 4 h the formazan dye is quantified using a scanning multiwell spectrophotometer with a 495-nm filter. The absorbance is directly correlated with number of viable cells. The standard absorbance curve was drawn by means of untreated cells seeded at a concentration of from 1000 to 10 000 cells/well with an increasing rate of 1000 cells/well. All standards and experiments were performed in triplicates.
(§2) 5 different types of cell lines were seeded in 96-well plates (medium volume in a well was 100 μl), at a concentration of 10,000 cells/cm^2 in Minimal Essential Medium supplemented with fetal calf serum. When the cells had reached a concentration of 65,000 cells/cm^2, they were treated with different doses of podophyllotoxin and deoxypodophyllotoxin for 48 h. Cell viability was then assayed (see above). […]
On the technique in general: Tetrazolium dyes change colour on reduction, which living cells bring about.

The test system of assay [1] is MCF-7 breast cancer cells. In words: Cell viability (XTT), MCF-7. In kind it is cell-based, human. The settings on record: Homo sapiens, MCF7, 48 h. As for the experimental part: as §1, §2
Assay [2] has as its system K562/S chronic myeloid leukemia cells. The assay can be described thus: Viability of leukemia cells, K562/S. In kind it is cell-based, human. The settings on record: Homo sapiens, 72 h, read-out: IC50 for viability of leukemia cell lines. As for the experimental part: (§3) The human chronic myeloid leukemia K562/S and K562/Vcr30 lines and the acute myeloid leukemia cell lines HL60/0 and HL60/Nov were obtained from ATCC. The K562/S and HL60/0 are wild type (non-resistant) cells, whereas K562/Vcr30 and HL60/Nov are cytostatic-resistant sublines. All leukemia cell lines were cultured in RPMI 1640 medium supplemented with 10% fetal bovine serum and with 2 mM glutamine, 1% benzyl-penicillin and streptomycin. The cells were grown in tissue culture flasks maintained at 95% air/5% CO2 atmosphere at 37° C. in a humidified incubator. For the experiments 25,000 cells were cultured in 60-mm plastic dishes or 96-well plastic plates. The experiments on leukemia cells were performed in collaboration with Associate professor Sigurd Vitols, Department of Pharmacology, Karolinska Hospital (Stockholm, Sweden).
as §1
(§4) The leukemia cell lines K562/S, K562/Vcr 30, HL60/0 and HL60/Nov were proven to express the IGF-1R. This was assayed by Western blotting analysis, as described in Methods and Experiment 1 and 2. The 4 leukemia cell lines were seeded in 96-well plates (medium volume in a well was 100 μl), in RPMI40 medium supplemented with fetal calf serum. After 24 h podophyllotoxin, deoxypodophyllotoxin and other derivatives were added at different concentrations for 72 h. Cell viability was then assayed (see above). IC50 values for each inhibitor and cell lines are shown below (Table 5). The results are based on 3 different experiments.

For assay [3], the system named is HL60 acute myeloid leukemia cells. In words: Viability of leukemia cells, HL60. In kind it is cell-based, human. The settings on record: Homo sapiens, HL-60; HL60, 72 h; read-out: IC50 for viability of leukemia cell lines. As for the experimental part:
as §3, §1, §4

Assay [4] addresses insulin receptor tyrosine kinase (Homo sapiens, UniProt P06213). In words: Interference with insulin receptor tyrosine kinase. In kind it is cell-based.
For assay [5], the system named is receptor of fibroblast growth factor. In words: Tyrosine phosphorylation of fibroblast growth factor receptor. In kind it is cell-based.

insulin receptor tyrosine kinase, sequence (P06213 28-1382): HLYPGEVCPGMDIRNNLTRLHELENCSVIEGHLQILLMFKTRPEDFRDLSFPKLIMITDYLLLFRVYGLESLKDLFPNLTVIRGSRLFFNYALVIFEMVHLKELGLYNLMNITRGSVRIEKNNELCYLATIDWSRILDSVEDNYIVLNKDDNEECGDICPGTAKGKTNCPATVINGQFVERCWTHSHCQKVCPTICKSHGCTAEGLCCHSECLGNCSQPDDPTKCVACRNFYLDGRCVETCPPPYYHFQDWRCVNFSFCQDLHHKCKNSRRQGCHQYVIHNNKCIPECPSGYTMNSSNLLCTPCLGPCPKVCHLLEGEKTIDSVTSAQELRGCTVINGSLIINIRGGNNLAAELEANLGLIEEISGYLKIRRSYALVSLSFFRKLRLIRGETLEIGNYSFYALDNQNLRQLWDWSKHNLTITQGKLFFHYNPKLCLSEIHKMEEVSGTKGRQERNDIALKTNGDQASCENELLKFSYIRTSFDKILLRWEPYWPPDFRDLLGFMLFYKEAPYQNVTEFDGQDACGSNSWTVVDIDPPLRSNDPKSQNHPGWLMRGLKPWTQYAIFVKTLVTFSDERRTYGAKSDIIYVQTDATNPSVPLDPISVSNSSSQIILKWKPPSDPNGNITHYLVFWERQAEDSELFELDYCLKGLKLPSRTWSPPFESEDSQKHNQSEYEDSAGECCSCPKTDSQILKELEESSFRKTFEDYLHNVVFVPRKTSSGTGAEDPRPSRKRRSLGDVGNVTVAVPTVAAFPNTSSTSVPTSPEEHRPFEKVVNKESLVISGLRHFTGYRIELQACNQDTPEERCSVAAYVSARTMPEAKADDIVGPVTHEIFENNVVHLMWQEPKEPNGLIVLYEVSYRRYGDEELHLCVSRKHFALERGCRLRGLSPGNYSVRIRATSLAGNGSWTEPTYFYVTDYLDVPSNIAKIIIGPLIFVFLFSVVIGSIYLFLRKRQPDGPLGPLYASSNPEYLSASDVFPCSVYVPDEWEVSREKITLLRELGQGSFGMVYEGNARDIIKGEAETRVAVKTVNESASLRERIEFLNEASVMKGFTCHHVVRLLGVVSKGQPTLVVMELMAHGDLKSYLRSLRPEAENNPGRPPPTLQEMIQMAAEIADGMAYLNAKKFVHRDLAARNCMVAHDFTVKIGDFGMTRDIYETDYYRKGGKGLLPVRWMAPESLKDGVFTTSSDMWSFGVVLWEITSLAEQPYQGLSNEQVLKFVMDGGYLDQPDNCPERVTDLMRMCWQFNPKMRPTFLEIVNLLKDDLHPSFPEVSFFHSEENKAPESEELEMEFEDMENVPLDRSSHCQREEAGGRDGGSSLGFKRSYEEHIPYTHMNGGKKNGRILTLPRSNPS

Take `COc1cc([C@@H]2c3cc4c(cc3[C@H](O)[C@H]3COC(=O)[C@H]23)OCO4)cc(OC)c1OC` [Podophyllotoxin, podophyllotoxin]: the IC50 with SK-MEL-28 melanoma cells came to 50 nM; in assay [1], 70 nM; in assay [2], 4 nM; in assay [3], 3 nM. The “interference with the insulin receptor tyrosine kinase” value in assay [4] was “do not interfere”. Also, the “interference with tyrosine phosphorylation of the receptor of fibroblast growth factor” value in assay [5] is reported as “Neither do they interfere”.

The IC50 is the concentration that gives 50% inhibition.
